In PubChem BioAssay (NCI):
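Compound exposure: 48 hours, 5 concentrations, 96-well plates. GI50 = concentration required for 50% inhibition of growth. The concentration for full growth arrest is given as TGI.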

How the values were obtained:
Assay in all cases: NCI-60 cell line screen, 48 h
[1] = tested on: SR leukemia
[2] = tested on: SK-MEL-2 melanoma
[3] = tested on: UO-31 renal
[4] = tested on: SK-OV-3 ovarian
[5] = tested on: SF-539 CNS
[6] = tested on: SF-295 CNS
[7] = tested on: TK-10 renal
[8] = tested on: CCRF-CEM leukemia
[9] = tested on: SNB-75 CNS
[10] = tested on: MDA-MB-231 breast
[11] = tested on: U251 CNS
[12] = tested on: CAKI-1 renal
[13] = tested on: SNB-19 CNS
[14] = tested on: SN12C renal
[15] = tested on: COLO 205 colon
[16] = tested on: HOP-92 NSCLC
[17] = tested on: UACC-257 melanoma
[18] = tested on: SF-268 CNS
[19] = tested on: OVCAR-3 ovarian
[20] = tested on: ACHN renal
[21] = tested on: SW-620 colon
[22] = tested on: SK-MEL-28 melanoma
[23] = tested on: RXF 393 renal
[24] = tested on: M14 melanoma
[25] = tested on: DU-145 prostate
[26] = tested on: NCI-H522 lung
[27] = tested on: HS 578T breast
[28] = tested on: A498 renal
[29] = tested on: NCI-H226 lung
[30] = tested on: HL-60(TB) leukemia
[31] = tested on: OVCAR-5 ovarian
[32] = tested on: NCI-H460 lung
[33] = tested on: HT29 colon
[34] = tested on: HCT-116 colon
[35] = tested on: NCI-H23 lung
[36] = tested on: KM12 colon
[37] = tested on: MOLT-4 leukemia
[38] = tested on: T-47D breast
[39] = tested on: NCI/ADR-RES ovarian
[40] = tested on: UACC-62 melanoma
[41] = tested on: MCF7 breast
[42] = tested on: MDA-MB-435
[43] = tested on: RPMI-8226 leukemia
[44] = tested on: HCT-15 colon
[45] = tested on: LOX IMVI melanoma
[46] = tested on: IGROV1 ovarian
[47] = tested on: HCC-2998 colon
[48] = tested on: OVCAR-8 ovarian
[49] = tested on: EKVX NSCLC
[50] = tested on: 786-0 renal
[51] = tested on: A549 NSCLC
[52] = tested on: SK-MEL-5 melanoma
[53] = tested on: K-562 leukemia
[54] = tested on: HOP-62 NSCLC
[55] = tested on: PC-3 prostate
[56] = tested on: BT-549 breast
[57] = tested on: MALME-3M melanoma
[58] = tested on: OVCAR-4 ovarian

NS(=O)(=O)c1ccc(N=Nc2c(O)[nH]c3ccc(Cl)cc23)cc1
GI50 [1]: 6.13 µM | TGI [1]: > 25 µM | GI50 [2]: > 18.3 µM | TGI [2]: > 25 µM | GI50 [3]: 6.46 µM | TGI [3]: > 20.6 µM | GI50 [4]: 6.73 µM | TGI [4]: 14.5 µM | GI50 [5]: 5.29 µM | TGI [5]: > 21.9 µM | GI50 [6]: > 25 µM | TGI [6]: > 25 µM | GI50 [7]: 5.78 µM | TGI [7]: > 23 µM | GI50 [8]: > 7.22 µM | TGI [8]: > 25 µM | GI50 [9]: 8.66 µM | TGI [9]: 24.9 µM | GI50 [10]: 8.86 µM | TGI [10]: > 25 µM | GI50 [11]: 6.64 µM | TGI [11]: > 25 µM | GI50 [12]: > 17.9 µM | TGI [12]: > 25 µM | GI50 [13]: > 25 µM | TGI [13]: > 25 µM | GI50 [14]: 17.2 µM | TGI [14]: > 25 µM | GI50 [15]: > 25 µM | TGI [15]: > 25 µM | GI50 [16]: > 9.61 µM | TGI [16]: > 25 µM | GI50 [17]: > 25 µM | TGI [17]: > 25 µM | GI50 [18]: 17.6 µM | TGI [18]: > 25 µM | GI50 [19]: 4.87 µM | TGI [19]: 14.2 µM | GI50 [20]: 9.95 µM | TGI [20]: > 25 µM | GI50 [21]: > 22.4 µM | TGI [21]: > 25 µM | GI50 [22]: > 25 µM | TGI [22]: > 25 µM | GI50 [23]: 12.9 µM | TGI [23]: > 25 µM | GI50 [24]: > 25 µM | TGI [24]: > 25 µM | GI50 [25]: 15.5 µM | TGI [25]: > 25 µM | GI50 [26]: 5.38 µM | TGI [26]: > 25 µM | GI50 [27]: 11.6 µM | TGI [27]: > 25 µM | GI50 [28]: > 22 µM | TGI [28]: > 25 µM | GI50 [29]: 13.6 µM | TGI [29]: > 25 µM | GI50 [30]: > 25 µM | TGI [30]: > 25 µM | GI50 [31]: > 25 µM | TGI [31]: > 25 µM | GI50 [32]: 8.62 µM | TGI [32]: > 25 µM | GI50 [33]: > 18.9 µM | TGI [33]: > 25 µM | GI50 [34]: 7.04 µM | TGI [34]: > 16.9 µM | GI50 [35]: 14 µM | TGI [35]: > 25 µM | GI50 [36]: 7.58 µM | TGI [36]: > 25 µM | GI50 [37]: > 25 µM | TGI [37]: > 25 µM | GI50 [38]: > 25 µM | TGI [38]: > 25 µM | GI50 [39]: 24.5 µM | TGI [39]: > 25 µM | GI50 [40]: > 15.2 µM | TGI [40]: > 25 µM | GI50 [41]: 12.2 µM | TGI [41]: > 25 µM | GI50 [42]: > 25 µM | TGI [42]: > 25 µM | GI50 [43]: > 25 µM | TGI [43]: > 25 µM | GI50 [44]: > 22.1 µM | TGI [44]: > 25 µM | GI50 [45]: 9.96 µM | TGI [45]: > 25 µM | GI50 [46]: > 19.6 µM | TGI [46]: > 25 µM | GI50 [47]: 18.3 µM | TGI [47]: > 25 µM | GI50 [48]: 12.9 µM | TGI [48]: > 25 µM | GI50 [49]: > 25 µM | TGI [49]: > 25 µM | GI50 [50]: 8.42 µM | TGI [50]: > 20.3 µM | GI50 [51]: 11.3 µM | TGI [51]: > 25 µM | GI50 [52]: 16.1 µM | TGI [52]: > 25 µM | GI50 [53]: > 25 µM | TGI [53]: > 25 µM | GI50 [54]: 13.4 µM | TGI [54]: > 25 µM | GI50 [55]: > 25 µM | TGI [55]: > 25 µM | GI50 [56]: > 16.9 µM | TGI [56]: > 25 µM | GI50 [57]: 20.7 µM | TGI [57]: > 25 µM | GI50 [58]: > 21.9 µM | TGI [58]: > 25 µM
